Patent US4526890A, “3,6,7,8-Substituted-s-triazolo[4,3-b]pyridazines as bronchodilators” (The Dow Chemical Company, priority 1981, dated 1985)
Where a name gives a salt, the structure may show the parent alone.

Experiments:
[1] = Audiogenic convulsive side effects (sound challenge: tonic convulsions and fatalities); settings: mouse, ip
Procedure: (§1) The interaction of sound with the convulsive threshold of drugs is a known phenomenon which can be used to evaluate such side effects. […] In a procedure for pharmacological evaluation, the lowering of the convulsive threshold, or the lowering of the LD50, by sound can be studied in mice.
(§2) In the test operations, mice are administered a test compound by intraperitoneal injection at various dosages, and the number of mice showing tonic convulsions and the number of fatalities occurring within 30 minutes is recorded.
The sound exposure is carried out by placing the mice in a sound insulated cage with a bell which emits 120 decibels of sound, and activating the bell for two minutes. The number of tonic convulsions and fatalities are then recorded to determine the ED50 and LD50 in the presence of the sound challenge.

[2] = tested on: histamine-induced bronchoconstriction; assay: Bronchodilator activity in the Konzett-Rossler guinea pig preparation (histamine-induced bronchoconstriction); type: in vivo; parameters: key to Histamine Blockade: % blockade = 100 − (post-dose response / mean of 3 prior) × 100; settings: for Histamine Blockade: table 7, intravenous, 3 mg/kg except as otherwise indicated, aminophylline 10 mg/kg; for percent blockade of histamine / percent of aminophylline activity: 3 mg/kg intravenously; for percent blockade of histamine: 2 minutes prior to histamine; for percent of aminophylline activity: aminophylline 10 mg/kg for comparison, histamine agonist
Procedure: Bronchodilator activity of representative triazolopyridazine compounds of the invention is examined in the Konzett-Rossler quinea pig preparation according to accepted procedures. See Knozett and Rossler; Arch. f. Exp. Path. u. Pharmakol. […] Int. Pharmacodyn. […] In this procedure an anesthetized guinea pig is artificially respired with a fixed volume of air. The volume of air is selected to slightly exceed the capacity of the guinea pig's lungs, and the excess air or "overflow" is measured. Test compounds are evaluated by administering a test compound intravenously 2 minutes prior to administration of an agonist compound (histamine, serotonin or acetylcholine) following 3 previous agonist doses resulting in relatively uniform (±10 percent) bronchoconstriction. […] This is calculated by dividing the "overflow" agonist response measured after administration of the test compound by the average of the 3 preceding agonist responses, multiplying by 100 and subtracting this value from 100 percent.

[3] = 30 minute LD50 (acute toxicity without sound); settings: mouse, in vivo, ip
Procedure: as §1, §2

histamine aerosol = assay: Histamine aerosol exposure (collapse time); type: in vivo, guinea pigs; settings: challenged two hours after intraperitoneal injection, collapse time > mean + two SD of controls; for ED50: Cavia porcellus, ip, 2 h
Procedure: In another procedure, test compounds were administered to guinea pigs by intraperitoneal injection and the guinea pigs were challenged two hours later by exposure to a histamine aerosol. Untreated animals collapse when exposed to the histamine aerosol. […] The ED50 's of representative compounds are set out in the following table.

mice = settings: U.S. Pat. No. 4,136,182; in words; cited from earlier work

| SMILES | LD50 ([1]; in vivo) [mg/kg] | TD50 [1] [mg/kg] | Histamine Blockade [2] | LD50 at 0.5 h [3] [mg/kg] | ED50 (histamine aerosol) [mg/kg] | further results |
| --- | --- | --- | --- | --- | --- | --- |
| Cc1nnc2c3c(c(N4CCOCC4)nn12)CCCC3 [6-Morpholino-3-methyl-7,8-tetramethylene-s-triazolo[4,3-b]pyridazine] | 126 | 90 | 61 | 149 | – | selectivity ratio ([1]; in vivo): ~1.18 |
| CCc1nnc2c3c(c(N4CCCC4)nn12)CCCC3 [Example 51] | – | – | – | – | < 2.5 | – |
| Cc1nnc2c3c(c(N4CCCC4)nn12)C1CCC3C1 (stereo not shown) [Example 10] | 85 | 85 | 95 | 85 | – | – |
| CC1CCCN(c2nn3cnnc3c3c2CCCC3)C1 (stereo not shown) [Example 33] | – | – | – | – | 1.8 | – |
| c1nnc2c3c(c(N4CCOCC4)nn12)CCCC3 [6-Morpholino-7,8-tetramethylene-s-triazolo[4,3-b]pyridazine] | – | – | – | – | – | selectivity ratio ([1]; in vivo): 3.8; percent blockade of histamine [2]: 75%; percent of aminophylline activity [2]: 113% |
| c1nnc2c3c(c(N4CCCC4)nn12)CCCC3 [Example 24, 6-(1-pyrrolidinyl)-7,8,9,10-tetrahydro(1,2,4)triazolo[3,4-a]phthalazine] | 170 | 150 | 86 | 191 | – | percent blockade of histamine [2]: 100%; percent of aminophylline activity [2]: 105% |
| Cc1cc2nnc(C)n2nc1N1CCCCC1 [3,7-dimethyl-6-piperidino-s-triazolo[4,3-b]pyridazine] | 327 | 260 | 48 | 327 | – | percent blockade of histamine [2]: 48% |
| CN1CCN(c2nn3cnnc3c3c2C2CCC3C2)CC1 (stereo not shown) [Example 5, 7,8,9,10-tetrahydro-6-[4-methyl-1-piperazinyl)-7,10-methano(1,2,4)triazolo[3,4-a]phthalazine] | 147 | 147 | 92 | 175 | – | – |
| c1nnc2c3c(c(N4CCOCC4)nn12)C1CCC3CC1 [Example 17] | 85 | 62 | 58 | 118 | – | – |
| CN1CCN(c2nn3cnnc3c3c2C2CCC3CC2)CC1 [Example 21] | 147 | 113 | 82 | 147 | – | – |
| Cc1c(N2CCOCC2)nn2cnnc2c1C [R7 Methyl; R3 H; R8 CH3; R6 Morpholino, 6-Morpholino-7,8-dimethyl-s-triazolo[4,3-b]pyridazine] | 272 | – | 46 | 272 | – | TD50 ([1]; in vivo): 272 mg/kg |
| CNc1nn2c(C)nnc2c2c1CCCC2 [Example 38] | – | – | – | – | 2.1 | – |
| CC(C)c1nnc2c3c(c(N4CCCC4C)nn12)CCCC3 (stereo not shown) [Example 55] | – | – | – | – | ~7.9 | – |
| Cc1nnc2c3c(c(N4CCN(C)CC4)nn12)C1CCC3CC1 [Example 23] | 147 | – | 90 | 147 | – | TD50 ([1]; in vivo): 147 mg/kg |
| CC(C)c1nnc2c3c(c(N4CCCC4)nn12)CCCC3 [Example 56] | – | – | – | – | ~5.1 | – |
| Cc1nnc2c3c(c(N(C)C)nn12)CCCC3 [Example 39] | – | – | – | – | 2.2 | – |
| Cc1nnc2c3c(c(N4CCN(C)CC4)nn12)C1CCC3C1 (stereo not shown) [Example 13] | 147 | – | 97 | 147 | – | TD50 ([1]; in vivo): 147 mg/kg |
| O=C1C[C@@H]2OCC=C3CN4CC[C@]56c7ccccc7N1[C@H]5[C@H]2[C@H]3C[C@H]46 [strychnine] | – | – | – | – | – | change in toxicity with sound (mice): no significant change in toxicity with sound |
| c1nnc2c3c(c(N4CCCC4)nn12)C1CCC3C1 (stereo not shown) [Example 7] | 100 | 93 | 87 | 136 | – | – |
| Cc1nnc2c3c(c(N4CCCN(C)CC4)nn12)CCCC3 [44 (dihydrochloride)] | – | – | – | – | 23.8 | – |
| Cc1nnc2c3c(c(N4CCOCC4)nn12)C1CCC3C1 (stereo not shown) [Example 6, 7,8,9,10-tetrahydro-3-methyl-6-(4-morpholinyl)-7,10-methano(1,2,4)triazolo[3,4-a]phthalazine] | 74 | 61 | 76 | 86 | – | – |
| CC1CCN(c2nn3cnnc3c3c2CCCC3)CC1 [Example 34] | – | – | – | – | 1.3 | – |

| SMILES | LD50 ([1]; in vivo) [mg/kg] | TD50 [1] [mg/kg] | Histamine Blockade [2] | LD50 at 0.5 h [3] [mg/kg] | ED50 (histamine aerosol) [mg/kg] | further results |
| --- | --- | --- | --- | --- | --- | --- |
| CCc1nnc2c3c(c(N4CCN(C)CC4)nn12)CCCC3 [Example 53] | – | – | – | – | 36.4 | – |
| Cc1c(N2CCCCC2)nn2c(C)nnc2c1C [R7 Methyl; R3 CH3; R8 CH3; R6 Piperidino, 6-Piperidino-3,7,8-trimethyl-s-triazolo[4,3-b]pyridazine] | 141 | – | 30 | 141 | – | TD50 ([1]; in vivo): 141 mg/kg |
| c1nnc2c3c(c(N4CCCCCC4)nn12)CCCC3 [Example 29, 6-(hexahydro-1H-azepin-1-yl)-7,8-tetramethylene(1,2,4)triazolo[4,3-b]pyridazine] | – | – | – | – | 5 | – |
| Cc1cc2nncn2nc1N1CCN(C)CC1 [Example 4, 7-Methyl-6-N-methylpiperazino-s-triazolo[4,3-b]pyridazine] | 140 | – | 39 | 272 | – | TD50 ([1]; in vivo): 116 mg/kg; percent blockade of histamine [2]: 39% |
| Cc1cc2nncn2nc1N1CCOCC1 [7-Methyl-6-morpholino-s-triazolo[4,3-b]pyridazine] | 280 | 45 | – | 327 | – | bronchodilator activity ([2]; in words): desirable bronchodilator activity |
| Cc1cc2nncn2nc1N1CCCC1 [Example 3, 7-methyl-6-pyrrolidino-s-triazolo[4,3-b]pyridazine] | 176 | 141 | 43 | 272 | – | – |
| CNc1nn2cnnc2c2c1CCCC2 [Example 31] | – | – | – | – | 4 | – |
| CC1CCCN1c1nn2cnnc2c2c1CCCC2 (stereo not shown) [Example 30, 6-(2-methylpyrrolidinyl)-7,8-tetramethylene(1,2,4)triazolo[4,3-b]pyridazine] | – | – | – | – | 1.6 | – |
| c1nnc2c3c(c(N4CCCCC4)nn12)C1CCC3C1 (stereo not shown) [Example 8] | 98 | 90 | 84 | 108 | – | – |
| CCc1nnc2c3c(c(N4CCCCCC4)nn12)CCCC3 [Example 47] | – | – | – | – | ~4.95 | – |
| c1nnc2c3c(c(N4CCCC4)nn12)C1CCC3CC1 [Example 15] | 117 | 117 | 66 | 136 | – | – |
| c1nnc2c3c(c(N4CCCCC4)nn12)CCCC3 [Example 25, 6-piperidino-7,8-tetramethylene-s-triazolo[4,3-b]pyridazine] | 298 | 283 | 72 | 298 | – | – |
| Cn1c(=O)c2[nH]cnc2n(C)c1=O [Aminophylline, reference compound] | – | – | – | – | – | inhibition in vivo at 10 mg/kg ([2]; Cavia porcellus, iv, read-out: Histamine Blockade): 37% |
| CN(C)c1nn2cnnc2c2c1CCCC2 [Example 32] | – | – | – | – | 2.5 | – |
| CCc1nnc2c3c(c(N4CCCN(C)CC4)nn12)CCCC3 [Example 45] | – | – | – | – | 5 | – |
| CN1CCN(c2nn3cnnc3c3c2CCCC3)CC1 [Example 27, 6-(4-methyl-1-piperazinyl)-7,8-tetramethylene(1,2,4)triazolo[4,3-b]pyridazine] | 134 | 134 | 91 | 147 | – | – |
| Cc1nnc2c3c(c(N4CCCC4)nn12)C1CCC3CC1 [Example 18] | 141 | – | 55 | 141 | – | TD50 ([1]; in vivo): 141 mg/kg |
| Cc1c(N2CCCCC2)nn2cnnc2c1C [R7 Methyl; R3 H; R8 CH3; R6 Piperidino, 6-Piperidino-7,8-dimethyl-s-triazolo[4,3-b]pyridazine] | 404 | – | 45 | 404 | – | TD50 ([1]; in vivo): 404 mg/kg |
| Cc1nnc2c3c(c(N4CCCCC4)nn12)CCCC3 [6-Piperidino-3-methyl-7,8-tetramethylene-s-triazolo[4,3-b]pyridazine] | 139 | 125 | 38 | 139 | – | – |
| Cc1c(N2CCCC2)nn2cnnc2c1C [7,8-Dimethyl-6-pyrrolidino-s-triazolo[4,3-b]pyridazine] | 277 | – | 62 | 277 | – | TD50 ([1]; in vivo): 277 mg/kg; percent blockade of histamine [2]: 65%; percent of aminophylline activity [2]: 67% |
| CCc1nnc2c3c(c(N4CCCN(C)CC4)nn12)CCCC3 [Example 46] | – | – | – | – | – | ED50 (histamine aerosol exposure) (histamine aerosol; 120 min): < 5 mg/kg i.p. |
